In US6355630B1, “Estra-1,3,5(10)-triene-7α-thioethers” (priority 1997, dated 2002):
Counter-ions that a name gives are not always drawn. Like-named read-outs stand apart in the source and are kept apart here.

Assays:
human estrogen receptor = target: T1, human estrogen receptor (Homo sapiens, UniProt P03372); assay: In vitro estrogen receptor binding test procedure ([3H]-17β-estradiol competition)
T1 construct: expressed in transfected cells; host or cells: Chinese Hamster ovary (CHO) cells; ribosome-free cytosol
T1 sequence (P03372 1-595): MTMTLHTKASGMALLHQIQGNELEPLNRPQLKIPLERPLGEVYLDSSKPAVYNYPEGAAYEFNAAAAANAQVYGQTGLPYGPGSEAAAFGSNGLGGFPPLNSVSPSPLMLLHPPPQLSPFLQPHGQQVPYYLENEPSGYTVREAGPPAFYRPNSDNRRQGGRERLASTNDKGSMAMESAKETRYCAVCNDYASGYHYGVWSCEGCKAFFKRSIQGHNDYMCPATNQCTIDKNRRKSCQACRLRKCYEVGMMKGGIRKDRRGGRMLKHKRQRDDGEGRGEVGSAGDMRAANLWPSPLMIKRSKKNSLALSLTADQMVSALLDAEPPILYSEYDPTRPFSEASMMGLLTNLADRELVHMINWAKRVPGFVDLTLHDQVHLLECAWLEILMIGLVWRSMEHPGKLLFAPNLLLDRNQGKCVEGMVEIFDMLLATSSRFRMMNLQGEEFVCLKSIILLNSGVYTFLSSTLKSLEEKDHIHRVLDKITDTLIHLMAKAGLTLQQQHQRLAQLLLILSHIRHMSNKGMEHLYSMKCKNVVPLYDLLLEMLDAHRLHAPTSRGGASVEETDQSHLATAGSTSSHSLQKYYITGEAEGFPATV
Procedure: In vitro Estrogen Receptor Binding Test Procedure
Chinese Hamster ovary (CHO) cells overexpressing the estrogen receptor were grown in […] dishes in DMEM+10% dextran coated charcoal, stripped fetal bovine serum. The plates were washed twice with PBS and once with 10 mM Tris-HCl, pH 7.4, 1 mM EDTA. Cells were harvested by scraping the surface and then the cell suspension was placed on ice. Cells were disrupted with a hand-held motorized tissue grinder using two, 10-second bursts. The crude preparation was centrifuged at 12,000 g for 20 minutes followed by a 60 minute spin at 100,000 G to produce a ribosome free cytosol. The cytosol was then frozen and stored at −80° C. Protein concentration of the cytosol was estimated using the BCA assay with reference standard protein.
Binding Test Procedure Conditions
100 uG/100 uL of the receptor preparation was aliquoted per well. […] The plate was incubated at room temperature for 2.5 h. At the end of this incubation period 150 uL of ice-cold dextran coated charcoal (5% activated charcoal coated with 0.05% 69K dextran) was added to each well and the plate was immediately centrifuged at 99 g for 5 minutes at 4° C. 200 uL of the supernatant solution was then removed for scintillation counting. Samples were counted to 2% or 10 minutes, whichever occurs first. […] Also, wells containing radioactivity but no cytosol were processed with charcoal to estimate unremovable DPM of [^3H] […] 96-well plates were used because they have proven to bind the least amount of estradiol.
Counts per minute (CPM) of radioactivity were automatically converted to disintegrated per minute (DPM) by the Beckman LS 7500 Scintillation Counter using a set of quenched standards to generate a H# for each sample. To calculate the % of estradiol binding in the presence of 100 or 500 fold competitor the following formula was applied:
((DPM sample−DPM not removed by charcoal/(DPM estradiol−DPM not removed by charcoal))×100%=% of estradiol binding
For the generation of IC50 curves, % binding is plotted vs compound. […] Values are reported as IC50 values. […] For a description of these methods, see Hulme, E. C., ed. 1992. Receptor-Ligand Interactions: A Practical Approach. IRL Press, New York.(see especially chapter 8).
Compounds were tested for their ability to displace estradiol in a human ER-receptor preparation as described above.

Ishikawa uterine cells = assay: Ishikawa cell alkaline phosphatase test procedure; assay type: cell-based, human; conditions: for Alkaline phosphatase activity, percent of response related to 1 nM 17β-estradiol: 48 h; for Behaviour in the uterine cell line (agonist/antagonist): in words, from Table 2
Procedure: Ishikawa Cell Alkaline Phosphatase Test Procedure
Cell Maintenance and Treatment
Ishikawa cells were maintained in DMEM/F12 (50%:50%) containing phenol red+10% fetal bovine serum and the medium was supplemented with 2 mM Glutamax, 1% Pen/Strap and 1 mM sodium pyruvate. Five days prior to the beginning of each evaluation (treatment of cells) the medium was changed to phenol red-free DMEM/F12+10% dextran coated charcoal stripped serum. On the day before treatment, cells were harvested using 0.5% trypsin/EDTA and plated at a density of 5×10^4 cells/well in 96-well tissue culture plates. […] Cells were treated for 48 h prior to assay. […] Sample population for at each dose was n=8.
Alkaline Phosphatase Test Procedure
At the end of 48 h the media was aspirated and cells were washed three times with phosphate buffered saline (PBS); 50 μL of lysis buffer (0.1 M Tris-HCl, pH 9.8, 0.2% Triton X-100) was added to each well. Plates were placed at −80° C. for a minimum of 15 minutes. Plates were thawed at 37° C. followed by the addition of 150 μL of 0.1 M Tris-HCl, pH 9.8, containing 4 mM para-nitrophenylphosphate (pNPP) to each well (final concentration, 3 mM pNPP).
Absorbance and slope calculations were made using the KineticCalc Application program (Bio-Tek Instruments, Inc., Winooski, Vt.). Results are expressed as the mean +/−S.D. of the rate of enzyme reaction (slope) averaged over the linear portion of the kinetic reaction curve (optical density readings every 5 minutes for 30 minutes absorbance reading).
The four compounds were used as reference standards:
A description of these methods is described by Holinka, C. F., Hata, H., Kuramoto, H. and Gurpide, E. (1986) Effects of steroid hormones and antisteroids on alkaline phosphatase activity in human endometrial cancer cells (Ishikawa Line). Cancer Research, 46:2771-2774, and by Littlefield, B. A., Gurpide, E., Markiewicz, L., McKinley, B. and Hochberg, R. B. (1990) A simple and sensitive microtiter plate estrogen bioassay based on stimulation alkaline phosphatase in Ishikawa cells; Estrogen action of D5 adrenal steroids. Endocrinology, 6:2757-2762.

rat uterus = assay: Rat uterotrophic/antiuterotrophic test procedure; assay type: in vivo; conditions: daily ip, 4-day immature rat
Procedure: Rat Uterotrophic/Antiuterotrophic Test Procedure
The estrogenic and antiestrogenic properties of the compounds were determined in a 4-day immature rat uterotrophic assay (as described previously by L. J. Black and R. L. Goode, Life Sciences, 26, 1453 (1980)). Immature Sprague-Dawley rats (female, 18 days old) were tested in groups of six. […] On day 4 the animals were sacrificed by CO2 asphyxiation and their uteri were removed and stripped of excess lipid, any fluid removed and the wet weight determined. A small section of one horn was submitted for histology and the remainder used to isolate total RNA in order to evaluate complement component 3 gene expression.
Representative compounds of this invention were evaluated in the rat uterotrophic/antiuterotrophic assay to determine their in vivo effects on the rat uterus.

[1] = 1 uM compound + 1 nM E2, antagonist mode

Row | Structure (SMILES) | IC50 (human estrogen receptor; read-out: Receptor IC50) | Alkaline phosphatase activity, percent of response related to 1 nM 17β-estradiol (Ishikawa uterine cells; 0.01 uM compound, agonist mode) | Alkaline phosphatase activity, percent of response related to 1 nM 17β-estradiol (Ishikawa uterine cells; 0.1 uM compound, agonist mode) | Alkaline phosphatase activity, percent of response related to 1 nM 17β-estradiol (Ishikawa uterine cells; [1]) | Alkaline phosphatase activity, percent of response related to 1 nM 17β-estradiol (Ishikawa uterine cells; 1 uM compound, agonist mode) | Uterine wet weight (rat uterus; 1 ug Cpd) | Uterine wet weight (rat uterus; 100 ug Cpd) | Uterine wet weight (rat uterus; 1 ug E2 + 100 ug Cpd) | Behaviour in the uterine cell line (agonist/antagonist) (Ishikawa uterine cells) | Receptor IC50 (human estrogen receptor; displacement of [3H]17β-estradiol, CHO cell cytosol ER preparation) | Competition for the human estrogen receptor (human estrogen receptor; in words, compounds with 17β-acetate) | IC50 (human estrogen receptor)
1 | C[C@]12CC[C@@H]3c4ccc(O)cc4C(=O)[C@@H](Sc4ccc(O)cc4)[C@H]3[C@@H]1CC[C@@H]2O [Example 2, (7α,17β) 3,17-Dihydroxy-7-(4-hydroxyphenyl)thio-estra-1,3,5(10)-triene-6-one] | 2500 nM | 7% | 14% | 87% | 42% | 39.4 mg | 83.1 mg |  |  |  |  | 
2 | C[C@]12CC[C@@H]3c4ccc(O)cc4[C@@H](O)[C@@H](Sc4ccc(O)cc4)[C@H]3[C@@H]1CC[C@@H]2O [Example 3, (6α,7α,17β) 7-(4-Hydroxyphenyl)thio-estra-1,3,5(10)-triene-3,6,17-triol] | 10 nM | 86% | 88% | 97% | 75% | 62.4 mg | 99.9 mg | 106.1 mg |  |  |  | 
3 | C[C@]12CC[C@@H]3c4ccc(O)cc4C[C@@H](Sc4ccc(O)cc4)[C@H]3[C@@H]1CC[C@@H]2O [Example 4, (7α,17β) 7-(4-Hydroxyphenyl)thio-estra-1,3,5(10)-triene-3,17-diol] | 300 nM | 7% | 47% | 6% | 57% | 37.9 mg | 45.4 mg |  |  |  |  | 
4 | C[C@]12CC[C@@H]3c4ccc(O)cc4C(=O)[C@@H](Sc4ccc(Br)cc4)[C@H]3[C@@H]1CC[C@@H]2O [Example 6, (7α,17β) 7-(4-Bromophenyl)thio-3,17-dihydroxy-estra-1,3,5(10)-trien-6-one] | 1500 nM | 31% | 100% | 109% | 104% | 29.0 mg | 97.7 mg |  | fully efficacious agonists |  |  | 
5 | C[C@]12CC[C@@H]3c4ccc(O)cc4C[C@@H](Sc4ccc(Br)cc4)[C@H]3[C@@H]1CC[C@@H]2O [Example 8, (7α,17β) 7-(4-Bromophenyl)thio-estra-1,3,5(10)-triene-3,17-diol] | 800 nM | 29% | 59% | 95% | 92% | 35.8 mg | 64.7 mg |  |  |  |  | 
6 | CC12CCC3c4ccc(O)cc4CC(Sc4ccc(-c5ccc(C=CC(=O)O)cc5)cc4)C3C1CCC2O (stereo not drawn) [Example 13, (7α,17β) 7-{4-[4′-(2-Carboxy)-ethenyl]biphenyl}thio-estra-1,3,5(10)-triene-3,17-diol sodium salt] | 400 nM | 11% | 72% | 101% | 95% | 48.0 mg | 55.8 mg |  |  |  |  | 
7 | COc1ccc2c(c1)CC(Sc1ccc(OCCN3CCCCC3)cc1)C1C2CCC2(C)C(OC(C)=O)CCC12 (stereo not drawn) [Example 14, (7α,17β) 3-Methoxy-7-{4-[2-(piperdin-1-yl)]ethoxyphenyl}thio-estra-1,3,5(10)-triene-17-ol-17-acetate] |  | 2% | 3% | 105% | 39% |  |  |  |  | No Binding | competed less effectively | 
8 | CCCCN(C)C(=O)CCCCCCCCCCS[C@@H]1C(=O)c2cc(O)ccc2[C@H]2CC[C@]3(C)[C@@H](O)CC[C@H]3[C@H]12 [Example 16, (7α,17β) 7-[10-(N-Butyl-N-methyl-carbamoyl)-decyl]thio-3,17-dihydroxy-estra-1,3,5(10)-triene-6-one] |  | 7% | 22% | 66% | 42% | 41.3 mg | 72.5 mg |  |  |  |  | 300 nM
9 | CCCCN(C)C(=O)CCCCCCCCCCS[C@H]1[C@@H]2[C@H](CC[C@]3(C)[C@@H](O)CC[C@@H]23)c2ccc(O)cc2[C@H]1O [Example 17, (6α,7α,17β) 7-[10-(N-Butyl-N-methyl-carbamoyl)-decyl]thio-estra-1,3,5(10)-triene-3,6,17-triol] | 400 nM | 0% | 0% | 28% | 1% | 36.5 mg | 64.2 mg |  | pure estrogen antagonists |  |  | 
